# In patent US12708625B2, “Pharmaceutical composition for improving or treating post-surgical hypoparathyroidism and treatment method using the same” (DONGGUK UNIVERSITY INDUSTRY-ACADEMIC COOPERATION FOUNDATION, priority 2019, dated 2026):
# Legend:
# Format in all cases: in vivo, rat
# [1] = tested on: total parathyroidectomy and auto-transplantation model; test: H&E staining of transplanted parathyroid tissue in SCM, total parathyroidectomy and auto-transplantation model (Experimental Schedule 3); conditions: Day 18, vs vehicle administration group
# Description: (§1) 9-week-old female Wistar rats were purchased from Koatech Co., Ltd. (Korea), and housed in an SPF room at a temperature of 21 to 23° C. and a humidity of 40 to 60% using a standard cage and under 12 hours cycles of light and darkness. The rats were acclimatized to the room for 1 week while being fed with a standard laboratory feed, and then used in the experiment. All care and experiments of experimental animals were performed following the guidelines by Animal Research Institute of Medical Science at Dongguk University, and the experimental schedule was approved by the Animal Institutional Review Board (AIRB No. 2016-04149 and AIRB No. 2019-07188).
# (§2) To construct a post-surgical hypoparathyroidism rat model, 10-week-old rats acclimatized for 1 week were used.
# To identify the parathyroid gland, a photosensitization method using 5-aminolevulinic acid hydrochloride (5-ALA) was performed. Briefly, a 50 mg/mL 5-ALA solution was prepared by suspending a 5-ALA powder (Sigma-Aldrich Korea, 5-aminolevulinic acid, #A3785, purity ≥98%) in a 0.9% NaCl solution. The rats were injected intraperitoneally with 500 mg/kg of the 5-ALA solution and after 2 hours, intramuscularly with Zoletil 50 (Virbac Laboratories, France) (0.1 mL/kg of body weight) and Rompun® (Bayer, Germany) (0.1 mL/kg of body weight). […]
# [2] = tested on: hemi-parathyroidectomy model; test: Administration of AXT914 in hemi-parathyroidectomy model (Experimental Schedule 1): serum PTH, calcium, phosphorus, urine calcium/creatinine; conditions: for urine calcium/creatinine ratio: 24 h urine on Day 13
# Description: as §1, §2
# (§3) To identify the parathyroid gland, a photosensitization method using 5-aminolevulinic acid hydrochloride (5-ALA) was performed. Briefly, a 50 mg/mL 5-ALA solution was prepared by suspending a 5-ALA powder (Sigma-Aldrich Korea, 5-aminolevulinic acid, #A3785, purity ≥98%) in a 0.9% NaCl solution. The rats were injected intraperitoneally with 500 mg/kg of the 5-ALA solution and after 2 hours, intramuscularly with Zoletil 50 (Virbac Laboratories, France) (0.1 mL/kg of body weight) and Rompun® (Bayer, Germany) (0.1 mL/kg of body weight). The anesthetized rats were laid down and the anterior neck and chest area were disinfected with povidone-iodine. In the surgical procedure, the trachea and the thyroid glands were exposed by incising the skin longitudinally from the midline of the neck. Both parathyroid glands showing a red fluorescent color were identified using blue light with a wavelength of 405±3 nm (Ergonomic LED Light Sources, Ocean Optics Inc., #LS-405, USA). In the case of the hemi-parathyroidectomy model, only one of both the parathyroid glands was removed. In the case of total parathyroidectomy and auto-transplantation model, both the parathyroid glands were removed, and then cut into small pieces, put into a small pocket made in the right sternocleidomastoid muscle (SCM), and the pocket was sutured with a […].
# (§4) AXT914 was obtained by Novartis Pharma AG (Switzerland). The AXT914 was prepared in the form of a microemulsion by the following method. Briefly, after Cremophor RH40 was heated to 65° C. with stirring, the Cremophor RH40, Capmul MCM, triethyl citrate, and ethanol absolute were mixed at a weight ratio of 34.6%, 42%, 8.4%, and 10%, respectively. After a clear solution obtained by stirring the mixture for 1 hour was used as a vehicle and mixed with AXT914 (weight ratio of 5%), the resulting mixture was stirred at an ambient temperature for 8 to 12 hours. A finally obtained microemulsion preconcentrate was diluted 10 folds with deionized water (DW) and mixed vigorously before administration.
# Referring to FIG. 1a, rats that had undergone hemi-parathyroidectomy were divided into a vehicle administration group (n=11), an AXT914 administration group 1 (n=10), and an AXT914 administration group 2 (n=11). A sham surgery group (n=9), which had undergone sham surgery, was also prepared. One week after the surgery, the AXT914 prepared in 1-3. was orally administered to the rats once daily for 2 weeks using a zonde needle. 5 mg/kg and 10 mg/kg of the AXT914 were administered to AXT914 administration groups 1 and 2, respectively. The vehicle (a mixture mixed with AXT914 in 1-3.) was orally administered to the vehicle administration group and the sham surgery group. Urine of the rats was collected for 24 hours on Day 13 after the start of drug administration. Blood was collected from the tails of the rats before the administration of drug (baseline) and from the tails of the rats at 0, 30, 120, 240, 360, and 720 minutes on Day 14 after the start of drug administration, and the rats were sacrificed. […]
# [3] = tested on: total parathyroidectomy and auto-transplantation model; test: Administration of AXT914 in total parathyroidectomy and auto-transplantation model (Experimental Schedule 2): serum PTH, calcium, phosphorus; conditions: 10 mg/kg oral once daily 3 weeks
# Description: as §1, §2, §3, §4
# Referring to FIG. 1b, rats that had undergone total parathyroidectomy and auto-transplantation were divided into a vehicle administration group (n=8) and an AXT914 administration group (n=8). A sham surgery group (n=6), which had undergone sham surgery, was also prepared. One week after the surgery, the AXT914 prepared in 1-3. was orally administered to the rats once daily for 3 weeks using a zonde needle, and the rats were sacrificed 1 week after the completion of administration and used for analysis. 10 mg/kg of AXT914 was administered to the AXT914 administration group. The vehicle was orally administered to the vehicle administration group and the sham surgery group. Blood was collected from the tails of the rats before the administration of drug (baseline) and from the tails of the rats on Day 21 and Day 28 after the start of drug administration.
# Serum samples obtained by centrifugation of BD Microtainer SSTTM (prod. No. REF 365967, Becton Dickinson) containing blood, and were stored in a −80° C. deep freezer. […]
# [4] = tested on: total parathyroidectomy and auto-transplantation model; test: Immunohistochemical staining of transplanted parathyroid tissue in SCM, total parathyroidectomy and auto-transplantation model (Experimental Schedule 3); conditions: Day 18; for expression of Ki67 (marker of cell proliferation) in transplanted parathyroid tissue: between administration groups
# Description: as §1, §2, §3, §4
# Referring to FIG. 1c, rats that had undergone total parathyroidectomy and auto-transplantation were divided into a vehicle administration group (n=11), an AXT914 administration group 1 (n=11), and an AXT914 administration group 2 (n=11). A sham surgery group (n=7), which had undergone sham surgery, was also prepared. Six days after the surgery, the AXT914 prepared in 1-3. was orally administered to the rats once daily every 5 days weekly for 18 days using a zonde needle, and the rats were sacrificed on Day 18 of the completion of administration and used for analysis. 10 mg/kg and 20 mg/kg of the AXT914 were orally administered to AXT914 administration groups 1 and 2, respectively. The vehicle was orally administered to the vehicle administration group and the sham surgery group. Blood was collected from the tails of the rats before the administration of drug (baseline) and collected from the tails of the rats on Day 18 of the completion of drug administration. A histological analysis was performed by sacrificing the rats to isolate SCMs with parathyroid glands autotransplanted. […]
# [5] = Day 21, vs vehicle administration group
# [6] = Day 28 (7 days after drug discontinuation), vs vehicle administration group
# [7] = 10 mg/kg oral 5 days weekly for 18 days, vs vehicle administration group
# [8] = 20 mg/kg oral 5 days weekly for 18 days, vs vehicle administration group
structure (smiles),measurement,setting,value
C#CCOc1ccc2c(c1)c(-c1ccc(C(C)C)cc1)nc(=O)n2Cc1ccc(Br)cc1 [AXT914],area increase of transplanted parathyroid tissue (H&E staining),[1]; 10 mg/kg oral 5 days weekly for 18 days (group 1),36%
same,area increase of transplanted parathyroid tissue (H&E staining),"[1]; 20 mg/kg oral 5 days weekly for 18 days (group 2), significant",about 3 times
same,serum PTH level,"[2]; 5 mg/kg oral once daily 2 weeks (group 1), Day 14, 120 minutes, vs vehicle administration group",higher than that of the vehicle administration group
same,serum PTH level,"[2]; 5 mg/kg oral once daily 2 weeks (group 1), Day 14, vs sham surgery group",no statistical difference from the sham surgery group
same,serum calcium level,"[2]; 5 mg/kg oral once daily 2 weeks, Day 14, all times, vs vehicle administration group",significantly higher calcium levels than those of the vehicle administration group
same,serum phosphorus level,"[2]; 5 mg/kg oral once daily 2 weeks, Day 14, vs sham surgery group",no statistical difference from the sham surgery group
same,serum calcium level,"[2]; 5 mg/kg oral once daily 2 weeks, Day 14 at 0, 30 and 720 minutes, vs sham surgery group",no statistical difference from those of the sham surgery group
same,serum phosphorus level,"[2]; 5 mg/kg oral once daily 2 weeks, Day 14 at 30, 120 and 360 minutes, vs vehicle administration group",significantly lower
same,urine calcium/creatinine ratio,"[2]; 5 mg/kg oral once daily, vs sham surgery group",no difference between the sham surgery group and the AXT914 administration groups
same,urine calcium/creatinine ratio,"[2]; 5 mg/kg oral once daily, vs vehicle administration group",vehicle administration group had a significantly higher urine calcium/creatinine ratio than the sham surgery group and the AXT914 administration groups
same,serum PTH level,"[2]; 10 mg/kg oral once daily 2 weeks (group 2), Day 14, all times, vs the other groups",significantly higher than those in the other groups
same,serum calcium level,"[2]; 10 mg/kg oral once daily 2 weeks, Day 14, all times, vs vehicle administration group",significantly higher calcium levels than those of the vehicle administration group
same,serum phosphorus level,"[2]; 10 mg/kg oral once daily 2 weeks, Day 14, vs sham surgery group",no statistical difference from the sham surgery group
same,serum calcium level,"[2]; 10 mg/kg oral once daily 2 weeks, Day 14 at 0 and 30 minutes, vs sham surgery group",no statistical difference from those of the sham surgery group
same,serum phosphorus level,"[2]; 10 mg/kg oral once daily 2 weeks, Day 14 at 30, 240, 360 and 720 minutes, vs vehicle administration group",significantly lower
same,urine calcium/creatinine ratio,"[2]; 10 mg/kg oral once daily, vs sham surgery group",no difference between the sham surgery group and the AXT914 administration groups
same,urine calcium/creatinine ratio,"[2]; 10 mg/kg oral once daily, vs vehicle administration group",vehicle administration group had a significantly higher urine calcium/creatinine ratio than the sham surgery group and the AXT914 administration groups
same,serum PTH level,"[3]; Day 21, vs sham surgery group",lower than those in the sham surgery group
same,serum calcium level,"[3]; Day 21, vs sham surgery group",no difference from those in the sham surgery group
same,serum phosphorus level,"[3]; Day 21, vs sham surgery group",no difference from those in the sham surgery group
same,serum PTH level,[3]; [5],significantly higher than those in the vehicle administration group
same,serum calcium level,[3]; [5],significantly higher than those in the vehicle administration group
same,serum phosphorus level,[3]; [5],significantly lower than those in the vehicle administration group
same,serum calcium level,"[3]; Day 28 (7 days after drug discontinuation), vs sham surgery group",lower than those in the sham surgery group
same,serum calcium level,[3]; [6],still higher than those in the vehicle administration group
same,serum phosphorus level,[3]; [6],"lower than those in the vehicle administration group, but there was no statistical difference"
same,expression of Ki67 (marker of cell proliferation) in transplanted parathyroid tissue,[4]; 10 mg/kg oral 5 days weekly for 18 days,not different between the administration groups
same,FGF2 positive cells in transplanted parathyroid tissue,[4]; [7],"not statistically significant, but showed an increasing pattern"
same,increase in the expression of VEGFA in transplanted parathyroid tissue,[4]; [7],about 6 fold
same,increase of expression level of PTH in transplanted parathyroid tissue,[4]; [7],about 2 fold
same,increase of number of CD31 positive cells in transplanted parathyroid tissue,[4]; [7],about 3 folds
same,expression of Ki67 (marker of cell proliferation) in transplanted parathyroid tissue,[4]; 20 mg/kg oral 5 days weekly for 18 days,not different between the administration groups
same,FGF2 positive cells in transplanted parathyroid tissue,[4]; [8],"not statistically significant, but showed an increasing pattern"
same,expression of MCL1 in transplanted parathyroid tissue,[4]; [8],"not statistically significant in AXT914 administration group 2, but showed an increasing pattern"
same,increase in the expression of VEGFA in transplanted parathyroid tissue,[4]; [8],about 10 fold
same,increase of expression level of PTH in transplanted parathyroid tissue,[4]; [8],about 2 fold
same,increase of number of CD31 positive cells in transplanted parathyroid tissue,[4]; [8],about 4.5 folds
